What was measured:
[1] = molecular target: T1, HCV NS5B RNA polymerase (Hepatitis C virus genotype 1b, UniProt P26663); experiment: Inhibition of HCV NS5B RNA-dependent RNA polymerase on heteromeric RNA template t500 (filter-binding, radiolabelled NTP); assay type: biochemical; conditions: test concentration not given (compounds tested up to 100 μM); for % I (ATP), Percent Inhibition of HCV NS5B RNA polymerase: [alpha-32P]-ATP label; for % I (GTP), Percent Inhibition of HCV NS5B RNA polymerase: [alpha-32P]-GTP label
T1 construct: purified hepatitis C NS5B (form with 21 amino acids C-terminally truncated)
Description: This assay can be used to measure the ability of the nucleoside triphosphates of the present invention to inhibit the enzymatic activity of the RNA-dependent RNA polymerase (NS5B) of the hepatitis C virus (HCV) on a heteromeric RNA template.
The following describes assay buffer conditions: (50 μl-total/reaction) • 20 mM Tris, pH 7.5 • 50 μM EDTA • 5 mM DTT • 2 mM MgCl2 • 80 mM KCl • 0.4 U/μl RNAsin (Promega, stock is 40 units/μl) • 0.75 μg t500 (a 500 nt RNA made using T7 runoff transcription with a sequence from the NS2/3 region of the hepatitis C genome) • 1.6 μg purified hepatitis C NS5B (form with 21 amino acids C-terminally truncated) • 1 μM A, C, U, GTP (nucleoside triphosphate mix) • [alpha-^32P]-GTP or [alpha-^32P]-ATP The compounds were tested at various concentrations up to 100 μM final concentration.
An appropriate volume of reaction buffer was made including enzyme and template t500. Nucleoside derivatives of the present invention were pipetted into the wells of a 96-well plate. A mixture of nucleoside triphosphates (NTP's), including the radiolabeled GTP, was made and pipetted into the wells of a 96-well plate. The reaction was initiated by addition of the enzyme-template reaction solution and allowed to proceed at room temperature for 1-2 hours.
The reaction was quenched by addition of 20 μl 0.5 M EDTA, pH 8.0. Blank reactions in which the quench solution is added to the NTPs prior to the addition of the reaction buffer were included.
50 μL of the quenched reaction was spotted onto DE81 filter disks (Whatman) and allowed to dry for 30 minutes. The filters were washed with 0.3 M ammonium formate, pH 8 (150 mL/wash until the cpm in 1 mL wash is less than 100, usually 6 washes). The filters were counted in 5-mL scintillation fluid in a scintillation counter.
The percentage of inhibition is calculated according to the following equation: %Inhibition={1−(cpm in test reaction−cpm in blank)/(cpm in control reaction−cpm in blank)}×100.

[2] = molecular target: wild-type HIV RT (Human immunodeficiency virus type 1 group M subtype B, UniProt P04585); experiment: Inhibition of HIV-RT activity (RNA template t500 annealed to DNA primer pD500, [alpha-33P]-dATP incorporation); assay type: biochemical; conditions: for inhibition at 10 µM: read-out: % I (10 μM), Inhibition of HIV-RT; for inhibition at 100 µM: read-out: % I (100 μM), Inhibition of HIV-RT

T1 sequence (P26663 2420-2989): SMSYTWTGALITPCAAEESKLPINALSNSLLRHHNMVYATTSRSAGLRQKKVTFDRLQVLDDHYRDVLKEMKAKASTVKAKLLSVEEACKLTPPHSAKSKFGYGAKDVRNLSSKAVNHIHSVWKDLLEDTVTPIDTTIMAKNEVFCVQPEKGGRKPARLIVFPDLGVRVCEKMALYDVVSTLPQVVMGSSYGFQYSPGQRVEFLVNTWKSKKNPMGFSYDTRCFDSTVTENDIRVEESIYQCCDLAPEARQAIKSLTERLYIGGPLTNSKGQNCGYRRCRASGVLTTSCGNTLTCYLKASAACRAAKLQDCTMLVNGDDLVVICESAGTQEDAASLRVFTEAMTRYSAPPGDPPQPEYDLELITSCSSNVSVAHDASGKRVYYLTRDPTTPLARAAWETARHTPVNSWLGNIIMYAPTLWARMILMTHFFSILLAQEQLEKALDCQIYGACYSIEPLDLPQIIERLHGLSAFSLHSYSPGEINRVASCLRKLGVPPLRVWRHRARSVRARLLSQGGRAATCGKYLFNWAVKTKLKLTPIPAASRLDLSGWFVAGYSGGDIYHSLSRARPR

Compound: 2′-Deoxythymidine-5′-(α-P-(amino triphosphate) [compound 17 of Table 2]
- % I (ATP), Percent Inhibition of HCV NS5B RNA polymerase [1]: 0.1%
- % I (GTP), Percent Inhibition of HCV NS5B RNA polymerase [1]: −6%

Compound: NCC1COCCOCCOCCOCCO1 (stereo not shown) [compound 11]
- inhibition at 10 µM [2]: 5.37%
- inhibition at 100 µM [2]: -17.2%

Compound: NCc1ccc(-c2ccccc2)cc1 [compound 14]
- inhibition at 10 µM [2]: -2.25%
- inhibition at 100 µM [2]: -12.9%

Compound: COc1cc(CN)cc(OC)c1 [compound 10]
- inhibition at 10 µM [2]: -6.41%
- inhibition at 100 µM [2]: -11.9%

Compound: 2′-O-Methyl guanosine-5′-(α-P-(N-butyl)triphosphate) [compound 23 of Table 2]
- % I (ATP), Percent Inhibition of HCV NS5B RNA polymerase [1]: 90%
- % I (GTP), Percent Inhibition of HCV NS5B RNA polymerase [1]: 91%

— patent publication US6900308B2, “α-modified nucleoside triphosphates” (ISIS Pharmaceuticals, Inc., priority 2001, dated 2005)
